Reference: ChEMBL document CHEMBL4373715, “Discovery and Biological Evaluations of Halogenated 2,4-Diphenyl Indeno[1,2-b]pyridinol Derivatives as Potent Topoisomerase IIα-Targeted Chemotherapeutic Agents for Breast Cancer” (J Med Chem, 2019)

How the values were obtained:
T47D = test: Antiproliferative activity against human T47D cells measured after 72 hrs by EZ-Cytox assay; type: functional, cell-based
HeLa = test: Antiproliferative activity against human HeLa cells measured after 72 hrs by EZ-Cytox assay; type: functional, cell-based
[1] = biological target: T1, DNA topoisomerase 1 (Homo sapiens) (UniProt P11387); test: Inhibition of recombinant human topoisomerase 1-mediated relaxation of supercoiled pBR322 DNA at 100 uM measured after 30 mins by ethidium bromide staining based agarose gel electrophoresis relative to control
T1 sequence (whole entry): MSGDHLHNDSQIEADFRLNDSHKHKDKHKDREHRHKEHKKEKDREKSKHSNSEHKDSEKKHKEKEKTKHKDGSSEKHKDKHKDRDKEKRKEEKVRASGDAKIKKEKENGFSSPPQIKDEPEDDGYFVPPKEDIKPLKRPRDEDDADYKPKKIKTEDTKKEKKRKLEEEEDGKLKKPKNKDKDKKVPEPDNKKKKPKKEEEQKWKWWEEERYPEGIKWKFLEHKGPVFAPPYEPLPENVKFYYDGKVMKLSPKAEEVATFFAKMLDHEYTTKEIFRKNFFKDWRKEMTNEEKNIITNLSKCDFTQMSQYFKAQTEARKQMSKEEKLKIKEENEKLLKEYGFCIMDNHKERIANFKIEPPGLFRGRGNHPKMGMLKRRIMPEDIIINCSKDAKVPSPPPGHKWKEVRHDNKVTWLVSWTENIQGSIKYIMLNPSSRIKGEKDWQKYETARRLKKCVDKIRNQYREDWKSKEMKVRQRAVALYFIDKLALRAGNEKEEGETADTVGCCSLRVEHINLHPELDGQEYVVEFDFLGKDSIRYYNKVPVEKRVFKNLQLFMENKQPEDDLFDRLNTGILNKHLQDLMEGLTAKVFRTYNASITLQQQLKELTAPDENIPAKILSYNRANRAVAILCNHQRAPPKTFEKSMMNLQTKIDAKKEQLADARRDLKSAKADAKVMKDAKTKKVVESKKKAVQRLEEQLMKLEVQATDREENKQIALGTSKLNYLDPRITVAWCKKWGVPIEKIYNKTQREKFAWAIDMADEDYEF

[2] = biological target: DNA topoisomerase 2-alpha (Homo sapiens) (UniProt P11388); test: Inhibition of recombinant human topoisomerase 2alpha-mediated relaxation of supercoiled pBR322 DNA at 100 uM measured after 30 mins by ethidium bromide staining based agarose gel electrophoresis relative to control
[3] = biological target: DNA topoisomerase 2-alpha (Homo sapiens) (UniProt P11388); test: Inhibition of recombinant human topoisomerase 2alpha-mediated relaxation of supercoiled pBR322 DNA at 20 uM measured after 30 mins by ethidium bromide staining based agarose gel electrophoresis relative to control
HCT-15 = test: Antiproliferative activity against human HCT15 cells measured after 72 hrs by EZ-Cytox assay; type: functional, cell-based; conditions: HCT-15, 72 h
DU-145 = test: Antiproliferative activity against human DU145 cells measured after 72 hrs by EZ-Cytox assay; type: functional, cell-based; conditions: DU-145, 72 h

Sequence of DNA topoisomerase 2-alpha (Homo sapiens) (P11388 whole entry): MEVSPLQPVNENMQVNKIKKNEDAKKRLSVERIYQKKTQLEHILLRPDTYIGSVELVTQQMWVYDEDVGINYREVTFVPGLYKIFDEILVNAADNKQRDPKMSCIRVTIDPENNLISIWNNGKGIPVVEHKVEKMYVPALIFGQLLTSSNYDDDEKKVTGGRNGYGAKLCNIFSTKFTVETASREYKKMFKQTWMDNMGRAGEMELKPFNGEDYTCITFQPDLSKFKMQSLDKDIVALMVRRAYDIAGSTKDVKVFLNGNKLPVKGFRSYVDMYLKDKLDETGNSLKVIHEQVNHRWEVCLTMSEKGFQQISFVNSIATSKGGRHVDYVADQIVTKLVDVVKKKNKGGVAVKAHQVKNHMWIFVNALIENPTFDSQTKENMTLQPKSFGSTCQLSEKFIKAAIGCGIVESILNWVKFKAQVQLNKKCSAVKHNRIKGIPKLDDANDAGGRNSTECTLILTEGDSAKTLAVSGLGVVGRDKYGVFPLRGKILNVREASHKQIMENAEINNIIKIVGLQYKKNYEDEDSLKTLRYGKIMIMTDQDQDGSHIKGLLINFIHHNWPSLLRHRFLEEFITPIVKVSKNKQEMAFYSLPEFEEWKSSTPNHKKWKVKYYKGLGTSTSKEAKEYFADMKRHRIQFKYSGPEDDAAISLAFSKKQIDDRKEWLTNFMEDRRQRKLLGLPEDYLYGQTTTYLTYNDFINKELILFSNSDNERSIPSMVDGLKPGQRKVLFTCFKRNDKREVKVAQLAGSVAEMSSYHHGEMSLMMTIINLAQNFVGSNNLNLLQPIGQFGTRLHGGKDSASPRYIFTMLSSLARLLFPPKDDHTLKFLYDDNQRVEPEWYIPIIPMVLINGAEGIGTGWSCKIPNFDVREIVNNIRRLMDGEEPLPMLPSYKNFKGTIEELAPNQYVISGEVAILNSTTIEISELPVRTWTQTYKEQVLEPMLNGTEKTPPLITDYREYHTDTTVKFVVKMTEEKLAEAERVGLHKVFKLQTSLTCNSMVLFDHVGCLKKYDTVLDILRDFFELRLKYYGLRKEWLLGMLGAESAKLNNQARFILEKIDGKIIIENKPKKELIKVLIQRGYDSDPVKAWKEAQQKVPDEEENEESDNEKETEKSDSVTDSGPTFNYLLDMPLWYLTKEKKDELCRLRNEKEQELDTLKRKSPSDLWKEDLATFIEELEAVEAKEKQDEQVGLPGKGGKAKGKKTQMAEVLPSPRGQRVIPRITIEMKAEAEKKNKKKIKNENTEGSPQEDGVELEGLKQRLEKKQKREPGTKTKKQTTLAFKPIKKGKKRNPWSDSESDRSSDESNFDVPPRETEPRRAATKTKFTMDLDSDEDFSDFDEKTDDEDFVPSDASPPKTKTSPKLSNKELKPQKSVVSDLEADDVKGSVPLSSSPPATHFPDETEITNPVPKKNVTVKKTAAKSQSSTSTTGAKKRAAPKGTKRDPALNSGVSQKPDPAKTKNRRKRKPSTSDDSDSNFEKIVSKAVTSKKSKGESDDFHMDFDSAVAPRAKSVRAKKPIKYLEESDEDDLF

inhibition [1] [%] | inhibition [2] [%] | inhibition [3] [%] | SMILES | IC50 (T47D) [nM] | IC50 (HeLa) [nM] | IC50 (HCT-15) [nM] | IC50 (DU-145) [nM]
0 | 100 | 24.9 | Oc1cccc(-c2cc(-c3ccccc3Cl)nc3c2Cc2c(O)cccc2-3)c1 | 1530 | 590 | 800 | 920
1.6 | 74.3 | 3.4 | Oc1ccc2c(c1)Cc1c(-c3cccc(Cl)c3)cc(-c3ccccc3O)nc1-2 | > 50000 | > 50000 | > 50000 | > 50000
0 | 82 | 0 | Oc1ccccc1-c1cc(-c2ccccc2Cl)nc2c1Cc1c(O)cccc1-2 | 920 | 680 | 770 | 830
0.2 | 71.6 | 0.7 | Oc1cccc(-c2cc(-c3cccc(C(F)(F)F)c3)nc3c2Cc2cccc(O)c2-3)c1 | 3630 | > 50000 | 14200 | 2770
20 | 96.8 | 0 | Oc1cccc(-c2cc(-c3ccccc3)nc3c2Cc2cc(O)ccc2-3)c1 | 2660 | 5640 | 1480 | 600
14.6 | 80.8 | 2.6 | Oc1ccc2c(c1)Cc1c(-c3ccccc3O)cc(-c3cccc(Cl)c3)nc1-2 | 2770 | 2690 | 2760 | 360
0.9 | 47.6 | 1.4 | Oc1ccc(-c2cc(-c3ccc(F)cc3)nc3c2Cc2ccc(O)cc2-3)cc1 | 1140 | 2250 | 2540 | 2340
6.7 | 81 | 1.2 | Oc1ccc(-c2cc(-c3ccccc3C(F)(F)F)nc3c2Cc2ccc(O)cc2-3)cc1 | 1470 | 1520 | 1320 | 2780
8.7 | 71.3 | 56.4 | Oc1ccc(-c2cc(-c3cccc(Cl)c3)nc3c2Cc2ccc(O)cc2-3)cc1 | 600 | > 50000 | 2360 | 480
13.4 | 80.9 | 3.7 | Oc1ccccc1-c1cc(-c2ccccc2Cl)nc2c1Cc1cccc(O)c1-2 | 870 | 1120 | 3170 | 290
23.7 | 79.2 | 1.8 | Oc1ccccc1-c1cc(-c2ccccc2Cl)c2c(n1)-c1cccc(O)c1C2 | 3030 | 4590 | 4120 | 4030
7.4 | 64.6 | 2.3 | Oc1cccc(-c2cc(-c3cccc(Cl)c3)c3c(n2)-c2cccc(O)c2C3)c1 | 33100 | 35500 | 4790 | 21300
26.8 | 97.5 | 4.4 | Oc1ccc2c(c1)Cc1c(-c3ccccc3O)cc(-c3ccc(Cl)cc3)nc1-2 | 620 | 3840 | 3970 | 650
17.1 | 44.2 | 4.9 | Oc1cccc(-c2cc(-c3cccc(F)c3)nc3c2Cc2ccc(O)cc2-3)c1 | 540 | 3450 | 1190 | 2170
0 | 76.8 | 5.8 | Oc1ccc2c(c1)-c1nc(-c3ccccc3Cl)cc(-c3ccccc3O)c1C2 | 2840 | 6710 | 4940 | 770
23.9 | 56.5 | 1.6 | Oc1ccccc1-c1cc(-c2ccccc2Cl)c2c(n1)-c1c(O)cccc1C2 | 2930 | > 50000 | 2030 | 5670
2.6 | 79.9 | 5.5 | Oc1ccc2c(c1)-c1nc(-c3ccccc3)cc(-c3ccccc3)c1C2 | 190 | 4380 | 3130 | 3490

inhibition [1] [%] | inhibition [2] [%] | inhibition [3] [%] | SMILES | IC50 (T47D) [nM] | IC50 (HeLa) [nM] | IC50 (HCT-15) [nM] | IC50 (DU-145) [nM]
22.3 | 65.1 | 28.7 | Oc1cccc(-c2cc(-c3ccc(F)cc3)nc3c2Cc2cc(O)ccc2-3)c1 | 1720 | 3740 | 1920 | 2940
8.8 | 73.9 | 3.3 | Oc1ccc(-c2cc(-c3cccc(Cl)c3)c3c(n2)-c2ccc(O)cc2C3)cc1 | 1860 | 5940 | 5690 | 2250
13.1 | 80 | 3.2 | Oc1ccccc1-c1cc(-c2cccc(Cl)c2)nc2c1Cc1cccc(O)c1-2 | 960 | 3620 | 1310 | 220
8.2 | 74.8 | 0 | Oc1ccc2c(c1)Cc1c(-c3ccccc3O)cc(-c3ccccc3)nc1-2 | 2440 | 27400 | 2080 | 1000
14.7 | 50.8 | 3.6 | Oc1ccc(-c2cc(-c3ccc(F)cc3)nc3c2Cc2c(O)cccc2-3)cc1 | 1370 | 4880 | 2230 | 1840
0 | 100 | 3 | Oc1ccc2c(c1)-c1nc(-c3ccc(C(F)(F)F)cc3)cc(-c3ccccc3O)c1C2 | 670 | 2230 | 3250 | 2800
0 | 100 | 5.1 | Oc1cccc(-c2cc(-c3ccc(C(F)(F)F)cc3)nc3c2Cc2ccc(O)cc2-3)c1 | 1800 | 3630 | 2950 | 3180
0.1 | 95.8 | 0.1 | Oc1ccccc1-c1cc(-c2ccccc2)nc2c1Cc1cccc(O)c1-2 | 2440 | 2950 | 1360 | 170
14.2 | 95.3 | 10.8 | Oc1ccc(-c2cc(-c3ccc(Cl)cc3)c3c(n2)-c2cc(O)ccc2C3)cc1 | 2670 | 10000 | 12000 | 1740
0 | 86.3 | 4.4 | Oc1cccc(-c2cc(-c3ccc(Cl)cc3)c3c(n2)-c2cccc(O)c2C3)c1 | 2110 | 4630 | 2580 | 3940
0 | 100 | 50.2 | Oc1ccc(-c2cc(-c3ccc(Cl)cc3)nc3c2Cc2cc(O)ccc2-3)cc1 | 1840 | 1020 | 770 | 1910
0 | 96.8 | 9.3 | Oc1ccc(-c2cc(-c3ccc(Cl)cc3)c3c(n2)-c2c(O)cccc2C3)cc1 | > 50000 | > 50000 | > 50000 | > 50000
10.2 | 36 | 3.3 | Oc1cccc(-c2cc(-c3ccccc3)c3c(n2)-c2ccc(O)cc2C3)c1 | 4120 | 5700 | 1300 | 270
0 | 78.5 | 0 | Oc1ccccc1-c1cc(-c2ccccc2)nc2c1Cc1c(O)cccc1-2 | 2330 | 6320 | 3470 | 800
8.5 | 87.1 | 11.1 | Oc1ccc(-c2cc(-c3cccc(C(F)(F)F)c3)nc3c2Cc2ccc(O)cc2-3)cc1 | 4690 | 3060 | 2770 | 2150
10.3 | 66.9 | 0.8 | Oc1ccc(-c2cc(-c3ccccc3Cl)c3c(n2)-c2c(O)cccc2C3)cc1 | 960 | 2790 | 1050 | 860
